Measurements published in US9695155B2, “Herbicidal substituted pyrimidinyloxy benzene compounds” (E. I. DU PONT DE NEMOURS AND COMPANY, priority 2013, dated 2017).

Legend:
corn [1] = experiment: Test C preemergence; assay type: in vivo, Zea mays; settings: for Corn plant response rating: preemergence; for Plant response rating, Corn: Preemergence, 31 g ai/ha, scale 0 to 100, 0 no effect, 100 complete control
Method in brief: (§1)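 Whole-plant greenhouse test with surfactant-containing solvent formulation, applied preemergence to sown loam–sand pots or postemergence to 2–18 cm plants. Scored by eye 13 to 15 days on, 0–100 scale.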

large (Lg) crabgrass = experiment: Test C postemergence; assay type: in vivo, Digitaria sanguinalis; settings: for Plant response rating, Crabgrass, Large: Postemergence
Method in brief: as §1

giant foxtail = experiment: Test C postemergence; assay type: in vivo, Setaria faberii; settings: for Plant response rating, Foxtail, Giant: Postemergence
Method in brief: as §1

ragweed [2] = experiment: Test A preemergence; assay type: in vivo, Ambrosia elatior; settings: for Plant response rating, Ragweed: 125 g ai/ha; for Ragweed plant response rating: 500 g ai/ha
Method in brief: (§2)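 Compounds in non-phytotoxic solvent with surfactant applied as soil spray preemergence, or postemergence to plants 2-10 cm at one- to two-leaf stage, in loam/sand. After approximately 10 days in greenhouse, injury rated visually versus untreated controls, 0 (no effect) to 100 (complete control).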

Italian ryegrass [3] = experiment: Test A preemergence; assay type: in vivo, Lolium multiflorum; settings: for Plant response rating, Ryegrass, Italian: 125 g ai/ha; for Ryegrass, Italian plant response rating: 500 g ai/ha
Method in brief: as §2

yellow nutsedge [4] = experiment: Test C preemergence; assay type: in vivo, Cyperus esculentus; settings: for Nutsedge, Yellow plant response rating: preemergence; for Plant response rating, Nutsedge, Yellow: Preemergence, 31 g ai/ha, scale 0 to 100, 0 no effect, 100 complete control
Method in brief: as §1

yellow nutsedge [5] = experiment: Test C postemergence; assay type: in vivo, Cyperus esculentus; settings: for Plant response rating, Nutsedge, Yellow: Postemergence, scale 0 to 100 (0 no effect, 100 complete control)
Method in brief: as §1

barnyardgrass = experiment: Test A postemergence; assay type: in vivo, Echinochloa crus-galli; settings: 0 to 100 scale where 0 is no effect and 100 is complete control
Method in brief: as §2

johnsongrass [6] = experiment: Test C postemergence; assay type: in vivo, Sorghum halepense; settings: for Plant response rating, Johnsongrass: Postemergence
Method in brief: as §1

Italian ryegrass [7] = experiment: Test C preemergence; assay type: in vivo, Lolium multiflorum; settings: for Ryegrass, Italian plant response rating: preemergence; for Plant response rating, Ryegrass, Italian: Preemergence, 31 g ai/ha, scale 0 to 100, 0 no effect, 100 complete control
Method in brief: as §1

ragweed [8] = experiment: Test A postemergence; assay type: in vivo, Ambrosia elatior; settings: 0 to 100 scale where 0 is no effect and 100 is complete control
Method in brief: as §2

wheat, winter [9] = experiment: Test C preemergence; assay type: in vivo, Triticum aestivum; settings: for Wheat plant response rating: preemergence; for Plant response rating, Wheat: Preemergence, 31 g ai/ha, scale 0 to 100, 0 no effect, 100 complete control
Method in brief: as §1

wheat, winter [10] = experiment: Test C postemergence; assay type: in vivo, Triticum aestivum; settings: for Plant response rating, Wheat: Postemergence, scale 0 to 100 (0 no effect, 100 complete control)
Method in brief: as §1

corn [11] = experiment: Test A postemergence; assay type: in vivo, Zea mays; settings: 0 to 100 scale where 0 is no effect and 100 is complete control
Method in brief: as §2

corn [12] = experiment: Test C postemergence; assay type: in vivo, Zea mays; settings: for Plant response rating, Corn: Postemergence
Method in brief: as §1

johnsongrass [13] = experiment: Test C preemergence; assay type: in vivo, Sorghum halepense; settings: for Johnsongrass plant response rating: preemergence; for Plant response rating, Johnsongrass: Preemergence, 31 g ai/ha, scale 0 to 100, 0 no effect, 100 complete control
Method in brief: as §1

[14] = 16 g ai/ha, scale 0 to 100 (0 no effect, 100 complete control)
[15] = 62 g ai/ha, scale 0 (no effect) to 100 (complete control)
[16] = 125 g ai/ha, scale 0 (no effect) to 100 (complete control)
[17] = 16 g ai/ha, postemergence, visual rating, scale 0 to 100 (0 no effect, 100 complete control), 13 to 15 days
[18] = 31 g ai/ha, scale 0 to 100 (0 no effect, 100 complete control), 13 to 15 days
[19] = 62 g ai/ha, scale 0 to 100 (0 no effect, 100 complete control)
[20] = 0 to 100 scale where 0 is no effect and 100 is complete control
[21] = 0 to 100 scale, 0 no effect, 100 complete control, approx. 10 days
[22] = 8 g ai/ha, scale 0 to 100 (0 no effect, 100 complete control)

Cc1cnc(Oc2cccc(C#N)c2-n2cc(C#N)cn2)nc1 [Compound 90]
Corn plant response rating (corn [1]; [14]): 0 | Corn plant response rating (corn [1]; [15]): 10 | Corn plant response rating (corn [1]; [16]): 45 | Plant response rating, Corn (corn [1]): 0 | Crabgrass, Large plant response rating (large (Lg) crabgrass; [17]): 5 | Plant response rating (0 to 100), Crabgrass, Large (large (Lg) crabgrass; 125 g ai/ha, postemergence): 10 | Plant response rating, Crabgrass, Large (large (Lg) crabgrass; [18]): 5 | Plant response rating, Crabgrass, Large (large (Lg) crabgrass; [19]): 10 | Foxtail, Giant plant response rating (giant foxtail; [17]): 35 | Plant response rating (0 to 100), Foxtail, Giant (giant foxtail; 125 g ai/ha, postemergence): 20 | Plant response rating, Foxtail, Giant (giant foxtail; [18]): 15 | Plant response rating, Foxtail, Giant (giant foxtail; [19]): 20 | Plant response rating, Ragweed (ragweed [2]; [20]): 50 | Ragweed plant response rating (ragweed [2]; [21]): 80 | Plant response rating, Ryegrass, Italian (Italian ryegrass [3]; [20]): 0 | Ryegrass, Italian plant response rating (Italian ryegrass [3]; [21]): 30 | Nutsedge, Yellow plant response rating (yellow nutsedge [4]; [14]): 35 | Nutsedge, Yellow plant response rating (yellow nutsedge [4]; [15]): 5 | Nutsedge, Yellow plant response rating (yellow nutsedge [4]; [16]): 60 | Plant response rating, Nutsedge, Yellow (yellow nutsedge [4]): 0 | Plant response rating (0 to 100), Nutsedge, Yellow (yellow nutsedge [5]; 125 g ai/ha, postemergence): 10 | Plant response rating, Nutsedge, Yellow (yellow nutsedge [5]; 31 g ai/ha, 13 to 15 days): 5 | Plant response rating, Nutsedge, Yellow (yellow nutsedge [5]; 62 g ai/ha): 10 | Plant response rating, Barnyardgrass (barnyardgrass; 125 g ai/ha): 90 | Plant response rating, Barnyardgrass (barnyardgrass; 500 g ai/ha): 100 | Johnsongrass plant response rating (johnsongrass [6]; [17]): 0 | Plant response rating (0 to 100), Johnsongrass (johnsongrass [6]; 125 g ai/ha, postemergence): 5 | Plant response rating, Johnsongrass (johnsongrass [6]; [18]): 5 | Plant response rating, Johnsongrass (johnsongrass [6]; [19]): 5 | Ryegrass, Italian plant response rating (Italian ryegrass [7]; [14]): 0 | Ryegrass, Italian plant response rating (Italian ryegrass [7]; [15]): 0 | Ryegrass, Italian plant response rating (Italian ryegrass [7]; [16]): 50 | Plant response rating, Ryegrass, Italian (Italian ryegrass [7]): 0 | Plant response rating, Ragweed (ragweed [8]; 125 g ai/ha): 60 | Plant response rating, Ragweed (ragweed [8]; 500 g ai/ha): 80 | Wheat plant response rating (wheat, winter [9]; [14]): 0 | Wheat plant response rating (wheat, winter [9]; [15]): 0 | Wheat plant response rating (wheat, winter [9]; [16]): 0 | Plant response rating, Wheat (wheat, winter [9]): 0 | Plant response rating (0 to 100), Wheat (wheat, winter [10]; 125 g ai/ha, postemergence): 0 | Plant response rating, Wheat (wheat, winter [10]; 31 g ai/ha, 13 to 15 days): 0 | Plant response rating, Wheat (wheat, winter [10]; 62 g ai/ha): 0 | Plant response rating, Corn (corn [11]; 125 g ai/ha): 0 | Plant response rating, Corn (corn [11]; 500 g ai/ha): 80 | Corn plant response rating (corn [12]; [17]): 0 | Plant response rating (0 to 100), Corn (corn [12]; 125 g ai/ha, postemergence): 5 | Plant response rating, Corn (corn [12]; [18]): 5 | Plant response rating, Corn (corn [12]; [19]): 5 | Johnsongrass plant response rating (johnsongrass [13]; [14]): 5 | Johnsongrass plant response rating (johnsongrass [13]; [15]): 20 | Johnsongrass plant response rating (johnsongrass [13]; [16]): 80 | Plant response rating, Johnsongrass (johnsongrass [13]): 10

N#Cc1cnn(-c2c(C#N)cccc2Oc2ncc(Br)cn2)c1 [Compound 135]
Corn plant response rating (corn [1]; [22]): 5 | Corn plant response rating (corn [1]; [14]): 10 | Corn plant response rating (corn [1]; [15]): 30 | Plant response rating, Corn (corn [1]): 5 | Plant response rating, Ragweed (ragweed [2]; [20]): 90 | Ragweed plant response rating (ragweed [2]; [20]): 90 | Plant response rating, Ryegrass, Italian (Italian ryegrass [3]; [20]): 0 | Ryegrass, Italian plant response rating (Italian ryegrass [3]; [20]): 20 | Nutsedge, Yellow plant response rating (yellow nutsedge [4]; [22]): 0 | Nutsedge, Yellow plant response rating (yellow nutsedge [4]; [14]): 0 | Nutsedge, Yellow plant response rating (yellow nutsedge [4]; [15]): 15 | Plant response rating, Nutsedge, Yellow (yellow nutsedge [4]): 0 | Barnyardgrass plant response rating (barnyardgrass; 125 g ai/ha): 40 | Plant response rating, Barnyardgrass (barnyardgrass; 500 g ai/ha): 100 | Ryegrass, Italian plant response rating (Italian ryegrass [7]; [22]): 0 | Ryegrass, Italian plant response rating (Italian ryegrass [7]; [14]): 0 | Ryegrass, Italian plant response rating (Italian ryegrass [7]; [15]): 10 | Plant response rating, Ryegrass, Italian (Italian ryegrass [7]): 5 | Ragweed plant response rating (ragweed [8]; 125 g ai/ha): 60 | Plant response rating, Ragweed (ragweed [8]; 500 g ai/ha): 100 | Wheat plant response rating (wheat, winter [9]; [22]): 0 | Wheat plant response rating (wheat, winter [9]; [14]): 0 | Wheat plant response rating (wheat, winter [9]; [15]): 0 | Plant response rating, Wheat (wheat, winter [9]): 0 | Corn plant response rating (corn [11]; 125 g ai/ha): 10 | Plant response rating, Corn (corn [11]; 500 g ai/ha): 80 | Johnsongrass plant response rating (johnsongrass [13]; [22]): 0 | Johnsongrass plant response rating (johnsongrass [13]; [14]): 0 | Johnsongrass plant response rating (johnsongrass [13]; [15]): 45 | Plant response rating, Johnsongrass (johnsongrass [13]): 5
